Eight compounds from publication PMC9687286, “Hydrophobic Rose Bengal Derivatives Exhibit Submicromolar-to-Subnanomolar Activity against Enveloped Viruses” (Biomolecules, 2022) can be followed below.

Series [1] is described as follows: Cell viability assay for MT-4 cells. Particulars: human.
Series [2] concerns SARS-CoV-2 strain PIK35. The series is described as follows: microbe, parasite or virus in culture. It counts as cell-based. Particulars: Severe acute respiratory syndrome coronavirus 2, Vero, read-out: EC50 (M ± SD), SARS-CoV-2.
Series [3] is described as follows: Cell viability assay for RD cells. Particulars: human.
Series [4] relates to HIV-1 strain NL4-3. The series is described as follows: microbe, parasite or virus in culture. It counts as cell-based. Particulars: Human immunodeficiency virus 1, NL43, MT4, 168 h, read-out: EC50 (M ± SD), HIV.
The subject of series [5] is CHIKV strain Nic. Briefly: microbe, parasite or virus in culture. It counts as cell-based. Particulars: Chikungunya virus, Vero, read-out: EC50 (M ± SD), CHIKV.
For series [6], the system named is Enterovirus C vaccine strain Sabin 1 of poliovirus type 1 (PV1). Briefly: microbe, parasite or virus in culture. Format: cell-based. To be noted: RD, 120 h, read-out: EC50 (M ± SD), PV1.
Series [7] has as its system Enterovirus B Echovirus 13 (E13) isolate 57088. Briefly: microbe, parasite or virus in culture. To be noted: RD, 120 h, read-out: EC50 (M ± SD), E13. Format: cell-based.
Series [8] in a line: Cell viability assay (resazurin) for Vero cells. To be noted: African green monkey, confluent Vero cell monolayers.
In series [9] the test system is Enterovirus A Coxsackievirus A16 (CVA16) isolate 49360. Briefly: microbe, parasite or virus in culture. Format: cell-based. Particulars: RD, 120 h, read-out: EC50 (M ± SD), CVA16.
Series [10] can be described thus: physchem. Particulars: aqueous with cosolvent or surfactant or cyclodextrin.

Structures can show the parent of a compound that is named as a salt.

In [1], `CCCCCCCCCCOC(=O)c1c(Cl)c(Cl)c(Cl)c(Cl)c1-c1c2cc(I)c(=O)c(I)c-2oc2c(I)c(O)c(I)cc12` [2d, Rose Bengal N-Decyl Ester, Monosodium Salt] registered a CC50 at 7 days of 42 ± 10 µM. Also, the EC50 in series [2] is 6.6 ± 3.1 µM; in series [4], 8.8 ± 2.6 µM; in series [5], 0.002 ± 0.001 µM; in [6], greater than 100 µM; in series [7] it was greater than 100 µM; in series [9], greater than 100 µM. Also, the CC50 at 5 days in series [3] was determined as 10.7 ± 2.6 µM; in series [8] it was 60 ± 15 µM.

Take `CCCCCCCCOC(=O)c1c(Cl)c(Cl)c(Cl)c(Cl)c1-c1c2cc(I)c(=O)c(I)c-2oc2c(I)c(O)c(I)cc12` [2c, Rose Bengal N-Octyl Ester, Monosodium Salt]: in series [1], the CC50 at 7 days came out at 42 ± 10 µM. Further, the EC50 in series [2] is 5.3 ± 1.3 µM; in [4], 8.8 ± 3.7 µM; in series [5] it was 0.0002 ± 0.0001 µM; in [6], greater than 100 µM; in series [7] it was greater than 100 µM; in series [9], greater than 100 µM. The CC50 at 5 days was determined as 21.3 ± 5.2 µM in series [3] and 53 ± 25 µM in [8].

Turning to `CCCCOC(=O)c1c(Cl)c(Cl)c(Cl)c(Cl)c1-c1c2cc(I)c(=O)c(I)c-2oc2c(I)c(O)c(I)cc12` [2a, Rose Bengal N-Butyl Ester, Monosodium Salt], in series [1], the CC50 at 7 days is 15 ± 4 µM. The compound also yielded a kinetic solubility in series [10] of 3.1 µM. The EC50 was 0.05 ± 0.02 µM in [2]; 6.3 ± 2.6 µM in series [4]; 0.004 ± 0.002 µM in series [5]; greater than 100 µM in [6]; greater than 100 µM in series [7]; greater than 100 µM in [9]. In addition, the values for the CC50 at 5 days in series [3] and in [8] were 21.3 ± 5.2 µM and 8 ± 1 µM, respectively.

In turn, `CCCCCCOC(=O)c1c(Cl)c(Cl)c(Cl)c(Cl)c1-c1c2cc(I)c(=O)c(I)c-2oc2c(I)c(O)c(I)cc12` [2b, Rose Bengal N-Hexyl Ester, Monosodium Salt] displayed a CC50 at 7 days in series [1] of 15 ± 4 µM. The solubility (kinetic) in series [10] turned out to be 1 µM. The half-maximal effective concentration (EC50) in series [2] is 0.4 ± 0.3 µM; in series [4] it was 4.4 ± 1.8 µM; in series [5] it was 0.0007 ± 0.0003 µM; in series [6] it was greater than 100 µM; in [7], greater than 100 µM; in series [9], greater than 100 µM. For the same compound, the figures for the CC50 at 5 days in series [3] and in series [8] were 21.3 ± 5.2 µM and 60 ± 15 µM, respectively.

In [1], `CCCCCCCCCCCCOC(=O)c1c(Cl)c(Cl)c(Cl)c(Cl)c1-c1c2cc(I)c(=O)c(I)c-2oc2c(I)c(O)c(I)cc12` [2e, Rose Bengal N-Dodecyl Ester, Monosodium Salt] yielded a CC50 at 7 days greater than 50 µM. The EC50 in series [2] was 43 ± 10 µM; in series [4], greater than 50 µM; in series [5], 0.038 ± 0.03 µM; in [6], greater than 100 µM; in series [7] it was greater than 100 µM; in series [9], greater than 100 µM. For the same compound, the CC50 at 5 days in [3] was 21.3 ± 5.2 µM; in series [8], greater than 100 µM.

For `Cc1cn([C@H]2C[C@H](N=[N+]=[N-])[C@@H](CO)O2)c(=O)[nH]c1=O` [AZT, azidothymidine, reference compound], in series [1], the CC50 at 7 days was greater than 5 µM. The EC50 in series [4] was 0.01 µM.

With `O=c1nc(NO)ccn1[C@@H]1O[C@H](CO)[C@@H](O)[C@H]1O` [NHC, N^4-hydroxycytidine, reference compound], the EC50 in series [2] stood at 4.7 ± 2.9 µM; in series [5] it was 23.6 ± 10.2 µM; in [6], 25 ± 10 µM; in series [7], 17 ± 8 µM; in series [9] it was 50 ± 18 µM. The 50% cytotoxic concentration (CC50) at 5 days in [3] and in series [8] was greater than 100 µM each time.

In series [1], `O=C(O)c1c(Cl)c(Cl)c(Cl)c(Cl)c1-c1c2cc(I)c(=O)c(I)c-2oc2c(I)c(O)c(I)cc12` [compound 1, Rose Bengal, disodium salt, reference compound] yielded a CC50 at 7 days greater than 50 µM. The kinetic solubility in series [10] was greater than 50 µM. The EC50 in series [2] was 0.5 ± 0.2 µM; in series [4], 18 ± 7 µM; in series [5], 0.11 ± 0.05 µM; in series [6], greater than 100 µM; in [7], greater than 100 µM; in series [9] it was greater than 100 µM. The CC50 at 5 days in series [3] and in series [8] was 43 ± 10 µM each time.
